Test results: US20250145635A1, “COMPOUND CONTAINING BIS(AZANYLYLIDENE) SULFONYL STRUCTURE AND USE THEREOF IN MEDICINE” (SCINNOHUB PHARMACEUTICAL CO., LTD., priority 2021, published 2025)

Assays:
[1] = target: recombinant human PKR enzyme (Homo sapiens (Human), UniProt P30613); assay: Pyruvate kinase (PKR) activity experiment; type: biochemical; details: activation of recombinant human PKR enzyme
Description: • 1). A recombinant human PKR enzyme solution was formulated at a concentration of 60 ng/well (a 20 μL reaction system), and 5 μL of the solution was added into each well of a black transparent bottom 384-well plate. • 2). Compound solutions were formulated at different concentrations, with the final concentrations of 1000/300/100 nM (containing 1% DMSO). Each 5 μL of the compound solution was added into the plate in item 3.1 and mixed well. The plate was incubated at room temperature for 10 min. • 3). A reaction system was formulated according to the instructions of a kit (as shown in the table below), and 10 μL of the reaction system was added into each well of the 384-well plate, and mixed uniformly with the solution in item 3.2.
• 4). The 384-well plate was placed on a microplate reader to detect the fluorescence value at 540/590 nm, where the value was read every 2 minutes and the detection was conducted continuously for 1 hour. • 5). The Slope value within the detection time was calculated, and the 0.1% DMSO well was used as a control well to calculate a compound activation rate.
[formula] • 6). Fitting dose-effect curve
(§1) With the log value of the compound concentration as the X axis and the percentage activation rate as the Y axis, a dose-effect curve was fitted with the log(agonist) vs. response-variable slope of the analysis software GraphPad Prism 5, and the AC50 value of the activity of each compound against PKR was obtained.

USP9X = USP9X (Homo sapiens (Human), UniProt Q93008); assay: USP9X enzyme activity experiment; type: biochemical; details: inhibition of USP9X enzyme, Ub-Rho 110 substrate
USP9X, sequence (Q93008 whole entry): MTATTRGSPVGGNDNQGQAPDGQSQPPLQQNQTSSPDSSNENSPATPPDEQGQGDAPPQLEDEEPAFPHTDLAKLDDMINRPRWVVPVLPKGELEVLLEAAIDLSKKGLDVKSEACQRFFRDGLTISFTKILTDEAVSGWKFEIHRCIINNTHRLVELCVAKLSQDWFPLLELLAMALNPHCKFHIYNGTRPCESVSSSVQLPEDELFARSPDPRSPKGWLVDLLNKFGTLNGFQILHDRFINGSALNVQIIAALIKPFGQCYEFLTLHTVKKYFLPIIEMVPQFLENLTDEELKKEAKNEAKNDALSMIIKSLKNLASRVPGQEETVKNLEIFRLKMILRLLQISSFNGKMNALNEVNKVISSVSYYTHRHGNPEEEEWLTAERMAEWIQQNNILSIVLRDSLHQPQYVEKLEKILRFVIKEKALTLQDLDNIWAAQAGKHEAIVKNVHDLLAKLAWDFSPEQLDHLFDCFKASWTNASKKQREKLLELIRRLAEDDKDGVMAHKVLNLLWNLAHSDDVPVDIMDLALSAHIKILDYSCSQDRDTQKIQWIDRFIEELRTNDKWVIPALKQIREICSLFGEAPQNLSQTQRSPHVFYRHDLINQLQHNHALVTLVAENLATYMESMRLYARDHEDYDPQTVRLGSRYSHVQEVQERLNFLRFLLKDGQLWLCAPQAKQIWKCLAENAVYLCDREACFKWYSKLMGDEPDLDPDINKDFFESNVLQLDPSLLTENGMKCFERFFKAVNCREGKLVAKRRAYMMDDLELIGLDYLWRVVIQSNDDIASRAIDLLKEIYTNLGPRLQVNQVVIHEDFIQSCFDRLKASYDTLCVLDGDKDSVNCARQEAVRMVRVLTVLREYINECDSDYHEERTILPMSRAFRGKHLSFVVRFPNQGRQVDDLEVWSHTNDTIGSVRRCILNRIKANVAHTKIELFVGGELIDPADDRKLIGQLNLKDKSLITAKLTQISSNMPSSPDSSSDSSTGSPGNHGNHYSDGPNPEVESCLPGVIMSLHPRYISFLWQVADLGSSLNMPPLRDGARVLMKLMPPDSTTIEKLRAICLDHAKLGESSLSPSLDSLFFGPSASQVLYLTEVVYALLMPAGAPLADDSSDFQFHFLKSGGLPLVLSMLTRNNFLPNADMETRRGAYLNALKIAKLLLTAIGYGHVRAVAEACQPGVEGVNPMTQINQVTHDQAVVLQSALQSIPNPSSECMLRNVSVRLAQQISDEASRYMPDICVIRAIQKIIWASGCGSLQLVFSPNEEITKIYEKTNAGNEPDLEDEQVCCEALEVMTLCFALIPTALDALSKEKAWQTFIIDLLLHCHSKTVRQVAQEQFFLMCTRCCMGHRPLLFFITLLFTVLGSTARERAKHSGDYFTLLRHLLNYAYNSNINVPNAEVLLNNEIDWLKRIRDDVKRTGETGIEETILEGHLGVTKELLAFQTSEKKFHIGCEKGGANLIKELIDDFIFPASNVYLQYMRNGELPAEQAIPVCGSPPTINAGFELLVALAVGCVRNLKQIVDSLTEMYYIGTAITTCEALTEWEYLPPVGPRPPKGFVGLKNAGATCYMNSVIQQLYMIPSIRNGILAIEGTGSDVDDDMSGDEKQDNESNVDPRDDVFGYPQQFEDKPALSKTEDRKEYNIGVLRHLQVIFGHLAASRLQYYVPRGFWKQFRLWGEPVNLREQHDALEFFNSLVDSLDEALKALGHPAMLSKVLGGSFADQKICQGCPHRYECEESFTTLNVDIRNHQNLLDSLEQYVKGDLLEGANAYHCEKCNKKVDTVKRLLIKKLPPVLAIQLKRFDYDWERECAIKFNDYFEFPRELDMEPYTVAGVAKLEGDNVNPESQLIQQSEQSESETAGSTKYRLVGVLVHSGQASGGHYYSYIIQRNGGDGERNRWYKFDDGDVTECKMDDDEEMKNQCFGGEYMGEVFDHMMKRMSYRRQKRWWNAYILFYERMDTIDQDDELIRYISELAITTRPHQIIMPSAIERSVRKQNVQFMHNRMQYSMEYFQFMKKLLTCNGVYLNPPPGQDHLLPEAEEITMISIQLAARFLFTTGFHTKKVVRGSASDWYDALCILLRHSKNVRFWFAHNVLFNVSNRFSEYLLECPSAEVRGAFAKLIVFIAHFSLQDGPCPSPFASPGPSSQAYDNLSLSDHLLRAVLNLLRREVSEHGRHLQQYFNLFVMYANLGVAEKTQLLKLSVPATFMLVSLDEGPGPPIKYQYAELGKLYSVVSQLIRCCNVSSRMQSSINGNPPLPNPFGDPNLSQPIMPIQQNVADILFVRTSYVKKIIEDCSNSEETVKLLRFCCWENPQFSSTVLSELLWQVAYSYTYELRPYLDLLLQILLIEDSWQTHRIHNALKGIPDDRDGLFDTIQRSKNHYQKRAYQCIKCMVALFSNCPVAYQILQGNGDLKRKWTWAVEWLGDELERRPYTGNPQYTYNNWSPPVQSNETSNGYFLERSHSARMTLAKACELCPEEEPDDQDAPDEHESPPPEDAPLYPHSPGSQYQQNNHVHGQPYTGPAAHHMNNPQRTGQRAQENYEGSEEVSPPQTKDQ
Description: • 1). A 1× analysis buffer was formulated, consisting of a modified Tris buffer (pH 7.5). • 2). Compound solutions of different concentrations were formulated with final concentrations of 3,000/1,000/300/100/30/10/3/1 nM (containing 1% DMSO), and added into a 384-well plate. • 3). A USP9X enzyme solution was formulated with the 1× analysis buffer. • 4). 10 μL of the USP9X enzyme solution was added into the 384-well plate, and incubated with the compounds at room temperature for 1 h. • 5). Rhodamine 110 Protein was added into the 1× analysis buffer to formulate a substrate working solution. • 6). 10 μL of the substrate solution was added into each reaction well, centrifuged for 30 s, and mixed uniformly for 30 s. • 7). The 384-well plate was placed on a microplate reader for detection, with an excitation wavelength of 480 nm and an emission wavelength of 540 nm. Test was conducted for 30 minutes and the data was collected. • 8. Fitting the dose-effect curve.
as §1, with “inhibition” for “activation”, “log(inhibitor)” for “log(agonist)”, “IC50” for “AC50”, “USP9X” for “PKR”

recombinant human PKR enzyme, sequence (P30613 whole entry): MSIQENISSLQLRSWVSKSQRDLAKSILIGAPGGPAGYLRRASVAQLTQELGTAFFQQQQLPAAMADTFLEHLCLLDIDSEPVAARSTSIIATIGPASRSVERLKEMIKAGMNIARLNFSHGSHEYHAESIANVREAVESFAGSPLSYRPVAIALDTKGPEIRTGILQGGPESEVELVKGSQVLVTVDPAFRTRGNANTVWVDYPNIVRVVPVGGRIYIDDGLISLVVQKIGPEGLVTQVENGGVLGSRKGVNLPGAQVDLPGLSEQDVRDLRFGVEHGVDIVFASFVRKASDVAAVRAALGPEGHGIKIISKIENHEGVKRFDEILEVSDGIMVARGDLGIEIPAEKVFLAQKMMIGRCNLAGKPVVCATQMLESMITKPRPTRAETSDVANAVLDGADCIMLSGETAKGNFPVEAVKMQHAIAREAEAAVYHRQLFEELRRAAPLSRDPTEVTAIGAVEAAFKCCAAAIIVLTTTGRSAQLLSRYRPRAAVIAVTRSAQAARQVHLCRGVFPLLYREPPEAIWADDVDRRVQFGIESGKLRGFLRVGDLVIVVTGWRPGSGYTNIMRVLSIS

SMILES	AC50 [1] [nM]	IC50 (USP9X) [nM]
O=C([C@H](CO)c1ccccc1)N1CC(=C2CN(S(=O)(=O)c3cnc4c(c3)OCCO4)C2)C1 [Compound 1, (S)-1-(1′-((2,3-dihydro-[1,4]dioxino[2,3-b]pyridin-7-yl)sulfonyl)-1′,4′-dihydro-2H,2′H-[3,3′-diazetidinylidene]-1(4H)-yl)-3-hydroxy-2-phenylpropan-1-one]	300 to 1000	< 100
O=C([C@H](CO)c1ccccc1)N1CC(=C2CN(S(=O)(=O)c3ccc4c(c3)OCCO4)C2)C1 [Compound 2, (S)-1-(1′-((2,3-dihydrobenzo[b][1,4]dioxin-6-yl)sulfonyl)-1′,4′-dihydro-2H,2′H-[3,3′-diazetidinylidene]-1(4H)-yl)-3-hydroxy-2-phenylpropan-1-one]	< 100	< 100
O=C([C@H](CO)c1ccccc1)N1CC(=C2CN(S(=O)(=O)c3ccc4ncsc4c3)C2)C1 [Compound 3, (S)-1-(1′-(benzo[d]thiazol-6-ylsulfonyl)-1′,4′-dihydro-2H,2′H-[3,3′-diazetidinylidene]-1(4H)-yl)-3-hydroxy-2-phenylpropan-1-one]	< 100	300 to 1000
O=C([C@H](CO)c1ccccc1)N1CC(=C2CN(S(=O)(=O)c3ccccn3)C2)C1 [Compound 4, (S)-3-hydroxy-2-phenyl-1-(1′-(pyridin-2-ylsulfonyl)-1′,4′-dihydro-2H,2′H-[3.3′-diazetidinylidene]-1(4H)-yl)propan-1-one]	101 to 300	101 to 300
COc1ccc(S(=O)(=O)N2CC(=C3CN(C(=O)[C@H](CO)c4ccccc4)C3)C2)cc1 [Compound 5, (S)-3-hydroxy-1-(1′-((4-methoxyphenyl)sulfonyl)-1′,4′-dihydro-2H,2′H-[3,3′-diazetidinylidene]-1(4H)-yl)-2-phenylpropan-1-one]	< 100	< 100
O=C(C(CO)c1ccccc1)N1CC(=C2CN(S(=O)(=O)c3ccc(OC(F)F)cc3)C2)C1 (stereo not drawn) [Compound 6, 1-(1′-((4-(difluoromethoxy)phenyl)sulfonyl)-1′,4′-dihydro-2H,2′H-[3,3′-diazetidinylidene]-1(4H)-yl)-3-hydroxy-2-phenylpropan-1-one]		101 to 300
O=C([C@@H](CO)c1ccc(F)cc1F)N1CC(=C2CN(S(=O)(=O)c3ccccn3)C2)C1 [Compound 84, (R)-2-(2,4-difluorophenyl)-3-hydroxy-1-(1′-(pyridin-2-ylsulfonyl)-1′,4′-dihydro-2H,2′H-[3,3′-diazetidinylidene]-1(4H)-yl)propan-1-one]	300 to 1000	
N#Cc1ccc(C(CO)C(=O)N2CC(=C3CN(S(=O)(=O)c4ccccn4)C3)C2)cc1 (stereo not drawn) [Compound 85, 4-(3-hydroxy-1-oxo-1-(1′-(pyridin-2-ylsulfonyl)-1′,4′-dihydro-2H,2′H-[3,3′-diazetidinylidene]-1(4H)-yl)propan-2-yl)benzonitrile]	300 to 1000	
O=C(C(CO)c1cc(F)cc(Cl)c1)N1CC(=C2CN(S(=O)(=O)c3ccccn3)C2)C1 (stereo not drawn) [Compound 86, 2-(3-chloro-5-fluorophenyl)-3-hydroxy-1-(1′-(pyridin-2-ylsulfonyl)-1′,4′-dihydro-2H,2′H-[3,3′-diazetidinylidene]-1(4H)-yl)propan-1-one]	300 to 1000	
COc1ccc(S(=O)(=O)N2CC(=C3CN(C(=O)[C@H](CO)c4ccc(F)cc4F)C3)C2)nc1 [Compound 87, (S)-2-(2,4-difluorophenyl)-3-hydroxy-1-(1′-((5-methoxypyridin-2-yl)sulfonyl)-1′,4′-dihydro-2H,2′H-[3,3′-diazetidinylidene]-1(4H)-yl)propan-1-one]	< 100	
COc1ccc(S(=O)(=O)N2CC(=C3CN(C(=O)[C@@H](CO)c4ccc(F)cc4F)C3)C2)nc1 [Compound 88, (R)-2-(2,4-difluorophenyl)-3-hydroxy-1-(1′-((5-methoxypyridin-2-yl)sulfonyl)-1′,4′-dihydro-2H,2′H-[3,3′-diazetidinylidene]-1(4H)-yl)propan-1-one]	300 to 1000	
O=C(C(CO)C1CCCCC1)N1CC(=C2CN(S(=O)(=O)c3ccccn3)C2)C1 (stereo not drawn) [Compound 90, 2-cyclohexyl-3-hydroxy-1-(1′-(pyridin-2-ylsulfonyl)-1′,4′-dihydro-2H,2′H-[3,3′-diazetidinylidene]-1(4H)-yl)propan-1-one]	101 to 300	
[2H]C([2H])([2H])Oc1ccc(S(=O)(=O)N2CC(=C3CN(C(=O)[C@H](CO)c4ccccc4)C3)C2)nc1 [Compound 91, (S)-3-hydroxy-1-(1′-((5-(methoxy-d3)pyridin-2-yl)sulfonyl)-1′,4′-dihydro-2H,2′H-[3,3′-diazetidinylidene]-1(4H)-yl)-2-phenylpropan-1-one]	< 100	
